From the supplement of paper PMC4862054

How the values were obtained:
Conditions in all cases: incubation time: 72 h
MCF-10A = experiment: drug sensitivity score (DSS), CellTiter-Glo (DSS (AUC-based score)); higher = stronger drug effect (viability inhibition or cytotoxicity); extreme values may be limits of the assay
Method in brief: (§1)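 After 72 h of incubation in 384-well plates with compound at 5 concentrations (10-fold steps, 10,000-fold range set per compound), breast cancer cell lines seeded in 20 µl suspension were read first for CellTox Green fluorescence at 485/520 nm. CellTiter-Glo luminescence was measured next, after 10 min at room temperature. Normalisation on each plate used 0.1 % DMSO and a positive kill control, and the drug sensitivity score was computed from the area under the fitted dose-response curve.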

CAL-120 = experiment: as above
Method in brief: as §1

CAL-148 [1] = experiment: as above
Method in brief: as §1

SK-BR-3 = experiment: as above
Method in brief: as §1

BT-474 = experiment: as above
Method in brief: as §1

MDA-MB-231 [2] = experiment: as above
Method in brief: as §1

MDA-MB-468 = experiment: as above
Method in brief: as §1

HDQ-P1 [3] = experiment: as above
Method in brief: as §1

MDA-MB-453 [4] = experiment: as above
Method in brief: as §1

BT-549 [5] = experiment: as above
Method in brief: as §1

Hs578T [6] = experiment: as above
Method in brief: as §1

DU-4475 [7] = experiment: as above
Method in brief: as §1

HCC1143 [8] = experiment: as above
Method in brief: as §1

CAL-148 [9] = experiment: normalised viability (% of control), CellTiter-Blue; higher = more viable cells (about 100 = DMSO control)
Method in brief: (§2)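 After 72 h on compound-loaded 384-well plates, breast cancer cell lines received 2.5 µl CellTiter-Blue reagent for 2 h at 37 °C. Fluorescence at 560/590 nm was scaled per plate so that vehicle was 100 and a positive kill control was 0. The value stands for normalised viability at a single listed concentration of the series.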

HCC1937 = experiment: as above
Method in brief: as §2

CAL-51 = experiment: as above
Method in brief: as §2

MDA-MB-231 [10] = experiment: as above
Method in brief: as §2

MFM-223 = experiment: as above
Method in brief: as §2

HDQ-P1 [11] = experiment: as above
Method in brief: as §2

MDA-MB-453 [12] = experiment: as above
Method in brief: as §2

BT-549 [13] = experiment: as above
Method in brief: as §2

Hs578T [14] = experiment: as above
Method in brief: as §2

DU-4475 [15] = experiment: as above
Method in brief: as §2

HCC1143 [16] = experiment: as above
Method in brief: as §2

CC/C(=C(\c1ccccc1)c1ccc(OCCN(C)C)cc1)c1ccccc1 [Tamoxifen]
Conditions	drug sensitivity score
BT-474	0
BT-549 [5]	0
CAL-120	0.0022
CAL-148 [1]	0
DU-4475 [7]	0
HCC1143 [8]	0
HDQ-P1 [3]	0
Hs578T [6]	0
MCF-10A	0
MDA-MB-231 [2]	0
MDA-MB-453 [4]	5.28
MDA-MB-468	0
SK-BR-3	1.07

normalised viability [%]
Conditions	3 nM	10 nM	30 nM	100 nM	1000 nM	10000 nM
BT-549 [13]	–	83.3	–	–	82.8	56.5
CAL-51	89.5	–	92.2	93.4	–	–
CAL-148 [9]	111	–	105	127	–	–
DU-4475 [15]	99.9	–	95.7	110	–	–
HCC1143 [16]	–	113	–	–	110	120
HCC1937	–	83.4	–	–	83.1	98.6
HDQ-P1 [11]	109	–	100	110	–	–
Hs578T [14]	–	122	–	–	123	104
MDA-MB-231 [10]	–	93.1	–	–	94.6	115
MDA-MB-453 [12]	98.4	–	85.2	103	–	–
MFM-223	–	89	–	–	87.7	54.1

COc1cc2c(N3CCN(C(=O)Nc4ccc(OC(C)C)cc4)CC3)ncnc2cc1OCCCN1CCCCC1 [Tandutinib]
Conditions	drug sensitivity score
BT-474	0
BT-549 [5]	0
CAL-120	0
CAL-148 [1]	0
DU-4475 [7]	0
HCC1143 [8]	0
HDQ-P1 [3]	0
Hs578T [6]	0
MCF-10A	0
MDA-MB-231 [2]	0
MDA-MB-453 [4]	0
MDA-MB-468	0
SK-BR-3	0

normalised viability [%]
Conditions	0.3 nM	1 nM	3 nM	10 nM	100 nM	1000 nM
BT-549 [13]	–	108	–	–	95.2	94.1
CAL-51	110	–	101	94.2	–	–
CAL-148 [9]	100	–	102	105	–	–
DU-4475 [15]	107	–	92.9	98.1	–	–
HCC1143 [16]	–	100	–	–	118	108
HCC1937	–	101	–	–	78.2	115
HDQ-P1 [11]	105	–	95.5	109	–	–
Hs578T [14]	–	115	–	–	116	96.2
MDA-MB-231 [10]	–	107	–	–	108	122
MDA-MB-453 [12]	117	–	94.9	96.9	–	–
MFM-223	–	104	–	–	98	113
